From patent US10538490B2, “Benzylaminopyridylcyclopropanecarboxylic acids, pharmaceutical compositions and uses thereof” (Boehringer Ingelheim International GmbH, priority 2016, dated 2020) come the findings set out here.

SMILES strings stand for the structures.

In this experiment the target is human GPR40 receptor (Homo sapiens, UniProt O14842). Put plainly: IP1 accumulation measurements using the IPOne assay system. The settings on record: 1321N1 cells stably expressing human GPR40 receptor, stimulation 1 h at 37° C. The experiment is classed as cell-based. On the procedure: IP1 accumulation measurements using the IPOne assay system—1321N1 cells stably expressing human GPR40 receptor (Euroscreen, Belgium) are seeded 24 h before the assay in white 384-well plates in culture medium containing 10% FCS, 1% Na-Pyruvate and 400 μg/mL G418. IPi is assayed according to the manufacturer's description (Cisbio Bioassays, France). In brief, the assay is started by substitution of the culture medium by stimulation buffer (Hepes 10 mM, CaCl2 1 mM, MgCl2 0.5 mM, KCl 4.2 mM, NaCl 146 mM, glucose 5.5 mM and LiCl 50 mM, pH 7.4). Cells are stimulated for 1 h at 37° C., 5% CO2 by addition of the compounds that are diluted in stimulation buffer containing LiCl. Assays are stopped by adding HTRF-conjugates (IP1-d2 and Anti-IP1 cryptate Tb) and lysis buffer, provided by the manufacturer. After an incubation time of 1 h at room temperature plates are measured using an EnVision™, Perkin Elmer. The obtained fluorescence ratios at 665/615 […] are then used to calculate the pEC50 values using Assay Explorer 3.3 Software (Accelrys, Inc.) by interpolation using an IP1 reference curve and subsequent sigmoidal curve fitting allowing for a variable hill slope.
human GPR40 receptor, sequence (O14842 whole entry): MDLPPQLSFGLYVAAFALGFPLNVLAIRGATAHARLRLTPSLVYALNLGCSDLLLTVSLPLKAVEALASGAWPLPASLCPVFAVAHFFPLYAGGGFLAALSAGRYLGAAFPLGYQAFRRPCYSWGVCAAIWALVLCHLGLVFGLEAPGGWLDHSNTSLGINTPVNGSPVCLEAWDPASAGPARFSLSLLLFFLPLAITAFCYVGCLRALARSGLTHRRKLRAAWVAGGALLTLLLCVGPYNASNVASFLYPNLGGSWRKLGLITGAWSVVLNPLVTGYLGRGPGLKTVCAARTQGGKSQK

One may read the EC50 as the concentration giving half of the maximal effect. As for `O=C(O)[C@H]1C[C@@H]1c1ccc(NCc2cc(-c3ccccc3C(F)(F)F)ccc2F)nc1` [Example 24], it took 0.204 µM to reach a half-maximal effect (EC50). The value for `Cc1cc(C(=O)N(C)C)cc(C)c1-c1cc(CNc2ccc([C@H]3C[C@@H]3C(=O)O)cn2)c(F)cc1F` [Example 103] was 0.462 µM; that for `Cc1cc(-c2cc(=O)n(C)cn2)cc(C)c1-c1cc(CNc2ccc([C@H]3C[C@@H]3C(=O)O)cn2)c(F)cc1F` [Example 85] was 0.025 µM. The value for `N#CC1(c2ccccc2-c2ccc(F)c(CNc3ccc([C@H]4C[C@@H]4C(=O)O)cn3)c2)CC1` [Example 32] was 1.94 µM; that for `Cc1cc(-c2ccc(=O)n(C)c2)cc(C)c1-c1ccc(F)c(CNc2ccc([C@H]3C[C@@H]3C(=O)O)cn2)c1` [Example 13] was 0.017 µM. `Cc1cc(-c2ccn(C)c(=O)c2)cc(C)c1-c1ccc(F)c(CNc2ccc([C@H]3C[C@@H]3C(=O)O)cn2)c1` [Example 44] had a concentration giving a half-maximal response (EC50) of 0.032 µM. The value for `Cc1cc(OCC2CCOCC2)cc(C)c1-c1cc(CNc2ccc([C@H]3C[C@@H]3C(=O)O)cn2)c(F)cc1F` [Example 101] was 0.039 µM; that for `COc1cc(OC)c(-c2cc(CNc3ccc([C@H]4C[C@@H]4C(=O)O)cn3)c(F)cc2F)c(OC)c1` [Example 72] was 0.838 µM.

Compound `Cc1cc(OCC2CCOC2)cc(C)c1-c1cc(CNc2ccc([C@H]3C[C@@H]3C(=O)O)cn2)c(F)cc1F` (some centres unmarked) [Example 78] had a concentration giving a half-maximal response (EC50) of 0.005 µM. The value for `NCc1ccc(F)c(-c2cc(CNc3ccc([C@H]4C[C@@H]4C(=O)O)cn3)c(F)cc2F)c1` [Example 3, (1S,2S)-2-{6-[(5′-Aminomethyl-4,6,2′-trifluoro-biphenyl-3-ylmethyl)-amino]-pyridin-3-yl}-cyclopropanecarboxylic Acid] was above 10 µM; that for `Cc1cc(OCc2ccccc2)cc(C)c1-c1cc(CNc2ccc([C@H]3C[C@@H]3C(=O)O)cn2)c(F)cc1F` [Example 89] was 0.065 µM. On to `Cc1cc(OCC(C)(C)O)cc(C)c1-c1cc(CNc2ccc([C@H]3C[C@@H]3C(=O)O)cn2)c(F)cc1F` [Example 83], for which a half-maximal response (EC50) required 0.104 µM.

`Cc1cc(OCC2CCOCC2)cc(C)c1-c1ccc(F)c(CNc2ccc([C@H]3C[C@@H]3C(=O)O)cn2)c1` [Example 58] had a concentration giving a half-maximal response (EC50) of 0.043 µM. The value for `Cc1cc(OC2CCOCC2)cc(C)c1-c1cc(CNc2ccc([C@H]3C[C@@H]3C(=O)O)cn2)c(F)cc1F` [Example 84] was 0.057 µM; that for `Cc1cc(OCC(=O)O)cc(C)c1-c1ccc(F)c(CNc2ccc([C@H]3C[C@@H]3C(=O)O)cn2)c1` [Example 17] was 0.353 µM. The value for `O=C(O)[C@H]1C[C@@H]1c1ccc(NCc2ccc(C(F)(F)F)c(-c3ccc(OC(F)(F)F)cc3)c2)nc1` [Example 6, (1S,2S)-2-{6-[(4′-Trifluoromethoxy-6-trifluoromethyl-biphenyl-3-ylmethyl)-amino]-pyridin-3-yl}-cyclopropanecarboxylic Acid] was 0.038 µM; that for `COc1c(F)c(F)c(-c2ccc(F)c(CNc3ccc([C@H]4C[C@@H]4C(=O)O)cn3)c2)c(F)c1F` [Example 22] was 0.477 µM; that for `CNC(=O)c1cc(C)c(-c2ccc(F)c(CNc3ccc([C@H]4C[C@@H]4C(=O)O)cn3)c2)c(C)c1` [Example 59] was 0.375 µM. The value for `Cc1cc(C(=O)O)cc(C)c1-c1cc(CNc2ccc([C@H]3C[C@@H]3C(=O)O)cn2)c(F)cc1F` [Example 69] was 5.96 µM. With `Cc1cc(C(=O)N(C)C)cc(C)c1-c1ccc(F)c(CNc2ccc([C@H]3C[C@@H]3C(=O)O)cn2)c1` [Example 60], the concentration for a half-maximal effect (EC50) came to 0.55 µM. The value for `Cc1cc(-c2cnccn2)cc(C)c1-c1ccc(F)c(CNc2ccc([C@H]3C[C@@H]3C(=O)O)cn2)c1` [Example 11] was 0.021 µM; that for `O=C(O)[C@H]1C[C@@H]1c1ccc(NCc2cc(-c3c(F)cccc3F)ccc2F)nc1` [Example 20] was 2.3 µM; that for `N#CC1(c2ccccc2-c2cc(CNc3ccc([C@H]4C[C@@H]4C(=O)O)cn3)c(F)cc2F)CC1` [Example 74] was 1.34 µM. The value for `Cc1cc(O[C@H]2CCOC2)cc(C)c1-c1cc(CNc2ccc([C@H]3C[C@@H]3C(=O)O)cn2)c(F)cc1F` [Example 79] was 0.042 µM; that for `Cc1cc(C(=O)O)cc(C)c1-c1ccc(F)c(CNc2ccc([C@H]3C[C@@H]3C(=O)O)cn2)c1` [Example 27] was above 10 µM. `CC(C)c1ccccc1-c1cc(CNc2ccc([C@H]3C[C@@H]3C(=O)O)cn2)c(F)cc1F` [Example 96]: a half-maximal effect (EC50) was put at 0.114 µM. The value for `Cc1cc(CO)cc(C)c1-c1cc(CNc2ccc([C@H]3C[C@@H]3C(=O)O)cn2)c(F)cc1F` [Example 82] was 0.236 µM; that for `Cc1cc(OCCC(C)(C)O)cc(C)c1-c1cc(CNc2ccc([C@H]3C[C@@H]3C(=O)O)cn2)ccc1C(F)(F)F` [Example 5, (1S,2S)-2-(6-{[4′-(3-Hydroxy-3-methyl-butoxy)-2′,6′-dimethyl-6-trifluoromethyl-biphenyl-3-ylmethyl]-amino}-pyridin-3-yl)-cyclopropanecarboxylic Acid] was 0.012 µM. The value for `Cc1cc(OCC2(O)CCS(=O)(=O)CC2)cc(C)c1-c1cc(CNc2ccc([C@H]3C[C@@H]3C(=O)O)cn2)c(F)cc1F` [Example 100] was 0.101 µM; that for `O=C(O)[C@H]1C[C@@H]1c1ccc(NCc2cc(-c3c(F)cc(OC4CC4)cc3F)c(F)cc2F)nc1` [Example 71] was 0.14 µM. On to `COc1cc(OC)c(F)c(-c2cc(CNc3ccc([C@H]4C[C@@H]4C(=O)O)cn3)c(F)cc2F)c1F` [Example 94], for which the concentration for a half-maximal effect (EC50) is 1.32 µM. The value for `Cc1cc(-c2ccn(C)c(=O)c2)cc(C)c1-c1cc(CNc2ccc([C@H]3C[C@@H]3C(=O)O)cn2)c(F)cc1F` [Example 86] was 0.029 µM; that for `Cc1cc(OCCCS(C)(=O)=O)cc(C)c1-c1cccc(CNc2ccc([C@H]3C[C@@H]3C(=O)O)cn2)c1` [Example 8, (1S,2S)-2-(6-{[4′-(3-Methanesulfonyl-propoxy)-2′,6′-dimethyl-biphenyl-3-ylmethyl]-amino}-pyridin-3-yl)-cyclopropanecarboxylic Acid] was 0.05 µM; that for `O=C(O)[C@H]1C[C@@H]1c1ccc(NCc2cc(-c3c(Cl)cccc3Cl)c(F)cc2F)nc1` [Example 73] was 0.04 µM. `Cc1cc(OCC2(O)CCSCC2)cc(C)c1-c1ccc(F)c(CNc2ccc([C@H]3C[C@@H]3C(=O)O)cn2)c1` [Example 16]: the EC50 came to 0.064 µM. The value for `Cc1cc(-c2nnn(CC(C)(C)O)n2)cc(C)c1-c1ccc(F)c(CNc2ccc([C@H]3C[C@@H]3C(=O)O)cn2)c1` [Example 14] was 0.011 µM. The value for `N#Cc1cccc(C#N)c1-c1cc(CNc2ccc([C@H]3C[C@@H]3C(=O)O)cn2)c(F)cc1F` [Example 65] was above 10 µM; that for `O=C(O)[C@H]1C[C@@H]1c1ccc(NCc2cc(-c3ccccc3C(F)(F)F)c(F)cc2F)nc1` [Example 66] was 0.048 µM; that for `Nc1cc(F)c(-c2cc(CNc3ccc([C@H]4C[C@@H]4C(=O)O)cn3)c(F)cc2F)c(F)c1` [Example 70] was 3.63 µM. The value for `Cc1cc(OCC2(O)CCS(=O)(=O)CC2)cc(C)c1-c1ccc(F)c(CNc2ccc([C@H]3C[C@@H]3C(=O)O)cn2)c1` [Example 57] was 0.422 µM; that for `COc1cc(F)c(-c2cc(CNc3ccc([C@H]4C[C@@H]4C(=O)O)cn3)c(F)cc2F)c(F)c1` [Example 62] was 0.668 µM.
